Measurements: patent US20220332758A1, “PEPTIDE-BASED COMPOSITIONS AND METHODS FOR TREATING ALZHEIMER'S DISEASE” (Board of Regents, The Universityof Texas System, priority 2019, published 2022)
Entries after “also recorded” stand apart in the source; their conditions may differ.

Columns and labels:
[1] = target: T1, purified human 20S proteasome (Homo sapiens, UniProt P25787+P60900); assay: In-gel overlay activity on non-denaturing gel, 20S proteasome; assay type: biochemical; conditions: 1 microM, 15 min, 100 microM Suc-LLVY-MCA
T1 construct: purified from erythrocytes; purchased Boston Biochem, Inc. or Enzo Life Sciences, Inc; host or cells: human erythrocytes
Description: Purified human 20S and 26S proteasomes were separated on non-denaturing polyacrylamide gel. The gel was overlayed with reaction buffer containing 100 microM fluorogenic peptide substrate Suc-LLVY-MCA (SEQ ID NO: 14) and 1% of vehicle solvent (DMSO) or the substrate and 1 microM Tat1 8,9 TOD. The gel was photographed after 15 min of incubation and then stained for the total protein content with Coomassie Brilliant Blue, and photographed. […] The protein content was the same for the control and Tat-overlayed sets. The activities of both 26S and 20S are enhanced by Tat1 8,9 TOD. The enhanced activity of 26S was not the result of Tat1 8,9 TOD—induced breaking of the 26S assembly into its components (19S and 20S) and activation of the released 20S catalytic core that still remains in the gel together with the whole 26S assembly. […] Traces of the 20S in both control 26S preparation and preparation pre-incubated with Tat1 8,9 TOD.

[2] = target: T2, proteasome activity in CNS of non-transgenic mice (Mus musculus, UniProt P49722+Q9QUM9); assay: Proteasome activity in CNS of mice after IP injection; assay type: in vivo
T2 construct: from tissue; host or cells: CNS of non-transgenic mice
Description: Plate-based proteasome activity assay. Samples were homogenized by pestle in 100 μL chilled proteasome buffer (50 mM Tris, 5 mM MgCl2, 1 mM DTT, pH 7.4, vortexed and then centrifuged at 21,000 g at 4° C. for 15 minutes and supernatant transferred. Protein content was recorded by Bradford assay and samples diluted as appropriate. In a black 96-well plate, 10 μL of samples were added to 80 μL proteasome buffer supplemented with addition of 5 mM ATP for measuring 26S proteasome activity. Finally, 50 μM Suc-LLVY-AMC fluorogenic substrate in 10 μL proteasome buffer was added to each well to measure chymotrypsin-like activity. The plate was incubated at 37° C. in a SpectrumMax M2 plate reader for four hours with fluorescence measured every 10 minutes with 355 nm excitation and reading 460 nm emission. Total proteasome activity per sample was defined as the gradient of the linear trendline over this incubation period.

hAPP(J20) mice = assay: Novel object recognition assay in hAPP(J20) mice; assay type: in vivo, mouse; conditions: 14 days IP injection, 1 mg/kg, listed as Tat-TOD
Description: Novel object recognition test. To measure recognition of a previously encountered object, animals are placed in an opacified rat cage with bedding for 10 min. The following (training) day, mice are returned to the chamber, which now contains two identical objects, and allowed to explore the arena for 5 minutes. Percent of time exploring each object is recorded using TopScan. During testing (4 hours after training) one of the objects in the box is replaced with a new object and the side of the replaced object randomized amongst animals. Mice are given 5 mins to explore the two objects, and percent time exploring each object is recorded using TopScan. A discrimination ratio calculated as (tnovel−tfamiliar)/(tnovel+tfamiliar) is used as a measure of retention of the priorly encountered object (positive and negative discrimination ratio values indicate a preference for exploration of the novel and familiar objects, respectively).
The compounds were tested as follows: in neuroblast MC65 cell culture model with overexpressed C99 fragment of amyloid precursor protein (APP) upon tetracycline withdrawal or with external APP added; and in fruit fly (D. melanogaster) model of AD with overexpressed APP and BACE1. The compounds (1 μM) were mixed with food. Flies were trained to recognize “positive” and “negative” odors (olfaction aversion). […]

[3] = tested on: APP, BACE1 and Aβ42 levels; assay: Immunoblot of APP and BACE1 and Aβ42 Elisa in hAPP(J20) mice; assay type: in vivo, mouse; conditions: 14 days treatment
20S proteasome [4] = target: T3, 20S proteasome (Homo sapiens, UniProt P25787+P60900); conditions: cited from earlier work
20S proteasome [5] = target: T3, 20S proteasome; assay: AFM imaging of gate conformers of 20S proteasomes; set-up: purified from erythrocytes; purchased Boston Biochem, Inc. or Enzo Life Sciences, Inc; host or cells: human erythrocytes; conditions: 1 μM
Description: Atomic Force Microscopy (AFM) Imaging. Single molecules of 20S proteasomes were imaged in tapping (oscillating) mode in liquid, with a scanner E of the Multimode Nanoscope IIIa (Bruker Inc., Santa Barbara, Calif.). The proteasomes were electrostatically attached to a muscovite mica substrate, covered with imaging buffer (5 mM Tris/HCl, pH 7) and scanned using cantilevers with the spring constant of 0.35 N/m from the SNL (Sharp Nitride Lever) probes (Bruker Inc., Santa Barbara, Calif.) tuned to 9-10 kHz. The amplitude set-point in the range of 1.5-2.0V, drive voltage of 300-500 mV and 3.05 Hz scanning rate were used. Scans of 1 μm^2 fields (512×512 pixels) were collected in height-mode. The images of fields typically contained several dozens of top-view (“standing”) 20S proteasome particles. The gate status was deduced from a profile of raw height values of pixels measured by a probe scanning across the single proteasome particles. In short, under the employed scanning conditions the proteasome a face with the central gate area was completely rendered by a six-pixel (11-12 nm) scan-line fragment. Numerical values of the height of particles of raw (after standard flattening) images were collected with a practical vertical resolution reaching 1 Å. […] The “events” of gate opening/closing were analysed for scans of distinct particles as well as multiple scans of the same particles.

## N=C(N)NCCCC(NC(=O)CN)C(=O)NC(CCCCN)C(=O)NC(CCCCN)C(=O)NC(CCCNC(=N)N)C(=O)NC(CCCNC(=N)N)C(=O)NC(CCC(N)=O)C(=O)N1Cc2ccccc2C[C@H]1C(=O)N1C(C(=O)NC(CCCNC(N)N)C(=O)N2CCCC2C(=O)NC(CO)C(=O)O)CC2CCCCC21 (stereo partly drawn) [(5), GRKKRRQ-TOD-RPS]
[1]
  20S activity in gel overlay: enhanced
[2]; 24 hours after intraperitoneal injection
  proteasome activity in the central nervous system: significantly enhances proteasome activity
[2]; mice, IP injection
  blood-brain-barrier penetration: stably penetrates the blood-brain-barrier
hAPP(J20) mice
  learning and memory, novel object recognition: efficiently explore their surroundings to recognize novel objects; also recorded: significantly enhances learning and memory
[3]
  APP protein levels: decline in both APP and BACE1 protein levels
  protein levels of BACE1: significantly reduces
  protein levels of β-amyloid: significantly reduces
20S proteasome [4]
  degradation by 20S proteasome: resistant to degradation
20S proteasome [5]
  intermediate conformers: 27%
